Measured values from patent publication US20250354930A1, “IONIC LIQUID ENCAPSULATION OF NIR DYES FOR THE IMPROVEMENT OF BLOODSTAIN DETECTION” (University of Mississippi, priority 2024, published 2025).
Converted amounts (≈) assume the structure as drawn. “And” between values parts separate entries of the source, which are not always exact repeats. Identical values can stand only once. Like-named read-outs stand apart in the source and are kept apart here.

Key:
[1] = Conductivity measurements of 160 mM solutions; type: physicochemical
Procedure: Conductivity was measured using a Thermo Scientific Orion Star […] conductivity meter using a DuraProbe 4-electrode conductivity cell. […] The clean probe was introduced into each solution to record the conductivity. The conductivity was measured in triplicate for each of the solutions.

[2] = target: T1, human serum albumin (HSA) (Homo sapiens, UniProt P02768); settings: dissolved in human serum albumin (HSA); cited from earlier work
T1 sequence (P02768 25-609): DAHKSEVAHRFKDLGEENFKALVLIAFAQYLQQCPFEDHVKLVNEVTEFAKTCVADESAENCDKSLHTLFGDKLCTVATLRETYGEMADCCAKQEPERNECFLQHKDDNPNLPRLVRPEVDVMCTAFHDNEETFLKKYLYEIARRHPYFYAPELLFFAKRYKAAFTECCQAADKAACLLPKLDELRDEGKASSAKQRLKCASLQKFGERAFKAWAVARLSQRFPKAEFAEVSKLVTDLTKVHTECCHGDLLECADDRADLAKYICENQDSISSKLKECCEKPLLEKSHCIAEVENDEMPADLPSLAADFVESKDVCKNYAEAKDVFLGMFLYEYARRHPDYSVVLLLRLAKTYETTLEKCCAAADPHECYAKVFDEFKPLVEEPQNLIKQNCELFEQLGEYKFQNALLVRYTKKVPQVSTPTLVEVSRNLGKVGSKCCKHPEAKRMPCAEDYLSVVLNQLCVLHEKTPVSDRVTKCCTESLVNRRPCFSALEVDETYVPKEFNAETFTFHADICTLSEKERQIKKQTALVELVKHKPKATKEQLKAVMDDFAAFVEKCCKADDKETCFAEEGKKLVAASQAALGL

[3] = target: T1, human serum albumin (HSA); settings: for free energy of binding: calculated from KA
HSA [4] = target: T2, HSA (Homo sapiens, UniProt P02768); assay: Dynamic light scattering size and zeta potential of HSA systems; settings: 0.1 mg/mL HSA in 10 μM SO3SQ, no IL
T2 sequence (P02768 25-609): as above

HSA [5] = target: T2, HSA; assay: Circular dichroism spectroscopy of HSA; settings: 1 mg/mL HSA; 10 μM SO3SQ, with or without 160 mM CG (1:1)
Procedure: CD experiments to determine the impact the 1:1 SO3SQ and CG 1:1 may have on HSA and DNA were performed on a Jasco J-1500 CD spectrophotometer. The measurements were performed using a Jasco Spectrosil 1 mm path length cuvette. Samples containing HSA were prepared at 1 mg/mL in either water, 10 μM SO3SQ in water, and 10 μM SO3SQ in water with 1:1 160 mM CG 1:1 added. The protein scans were conducted at a 200-260 nm range. For measurements involving DNA, bacterial plasmid DNA was used, and the DNA concentration was maintained at 12 nM across all samples due to high instrument sensitivity. CG 1:1 was added at 2.5% v/v to achieve a 160 mM concentration. A solution of 9.14 μM SO3SQ in water was made and added to DNA solutions in 5 μL increments. These scans were completed over a 200-350 nm range.

Aqueous solubility = type: physicochemical; settings: water
[6] = in the presence of fetal bovine serum; cited from earlier work
HSA [7] = target: T2, HSA; assay: Isothermal titration calorimetry of HSA titrated into SO3SQ; type: binding
Procedure: ITC measurements were carried out in triplicate on a Malvern VP-ITC. Uncertainties are provided as the standard error of the mean. The solvent was either buffer alone (25 mM sodium phosphate, pH 6.5) or buffer plus 40 mM CG 1:1. HSA was dialyzed into the appropriate buffer, and solid SO3SQ was dissolved in dialysis buffer to ensure a close buffer match. This was necessary in order to prevent strong heats of dilution that are often observed when ILs are titrated in separately. Both HSA and dye solutions were degassed for 10 min before experiments. A typical experiment contained 60 μM HSA in the syringe and 60 μM dye in the calorimetry cell. A total of 28 injections were typically used, each 10 μL in volume, and 10 min of equilibration time was allowed to occur between injections. Measurements were performed at 25° C. Because injection heats and corresponding signal-to-noise ratios were small, manual baseline fitting was performed using Origin software. Since K and N cannot be determined using this ratio of HSA and dye in the presence of CG 1:1, only the enthalpy is accessible from these measurements. The enthalpy for each ITC experiment was reported as the average enthalpy of the first 10 useable injections, which were all similar. […] For reverse titrations, performed without CG 1:1, N, K, and ΔH were fit using CHASM, and the heat of the final injection was used as the baseline. The number of binding sites per HSA molecule was reported as the inverse value of N from fitting, as is typical for reverse titrations. Finally, titrations were also performed where SO3SQ or HSA was systematically removed, one at a time, in the presence and absence of CG 1:1, to determine whether dilution heats were contributing to the measured enthalpy. In all cases, dilution heats were small, less than 10% of the observed enthalpy, and no further corrections were made.

[8] = 10 μM dye; IL scanned 0-240 mM or additive at 160 mM
[9] = absence of CG 1:1, reverse titration, 25° C.

## [Cl-].[Na+] [NaCl]
[1]
  Conductivity, Mean ± SD: 20.4 ± 0.2 μS/cm
  Conductivity, Replicate 1: 20.2 μS/cm
  Conductivity, Replicate 2: 20.6 μS/cm
  Conductivity, Replicate 3: 20.3 μS/cm
  average conductance: 20.4±0.2 mS/cm
  conductance relative to that of the IL: 100 ×

## CC1=C(c2ccc(OCCCCS(=O)(=O)O)cc2)/C(=C2/C(=O)C(c3c(-c4ccc(OCCCCS(=O)(=O)[O-])cc4)c(C)c4ccccn34)C2O)[n+]2ccccc21 (stereo not drawn) [SO3SQ]
[2]
  fluorescence quantum yield ΦF: 61.1%
[3]; 10 μM SO3SQ, no IL
  apparent association constant KA,app of HSA in SO3SQ: 3.2×10^5 and 2.0×10^5
[3]; system containing just the dye
  free energy of binding: -7.4 kcal/mol
[3]; system containing the dye and IL
  free energy of binding: -8.0 kcal/mol
HSA [4]
  average charge (zeta potential): −20±5 mV
  average size: 150±20 nm
HSA [5]
  effect on the secondary structure of HSA: increase in the alpha helical content
Aqueous solubility
  solubility: ~60 µM (≈ 47.9 µg/mL)
[6]
  fluorescence quantum yield ΦF: 58%
HSA [7]; [9]
  K: (1.8±0.4)×10^6
  N (number of binding sites per HSA molecule): 11.5±0.4
  heat of binding, ΔH: -18 ± 2 kcal/mol
  ΔG°: -8.50 ± 0.13 kcal/mol
HSA [7]; buffer containing 40 mM ionic liquid, 25 mM sodium phosphate pH 6.5, 25° C.
  enthalpy of binding between HSA and SO3SQ, ΔH: 6.1 ± 0.2 kcal/mol

## O=C(O)CO [glycolic acid]
[8]
  effect on the dye's fluorescence in the presence of blood: little impact
